Measurements published in patent US10526389B2, “Peptides and combinations of peptides for use in immunotherapy against lung cancer, including NSCLC and other cancers” (Immatics Biotechnologies GmbH, priority 2015, dated 2020).

System: CD8+ T cells
Assay: In vitro immunogenicity of HLA-A*02 peptides (CD8+ T-cell priming with aAPCs, multimer staining)
Assay type: cell-based, human
Source text: In order to obtain information regarding the immunogenicity of the TUMAPs of the present invention, the inventors performed investigations using an in vitro T-cell priming assay based on repeated stimulations of CD8+ T cells with artificial antigen presenting cells (aAPCs) loaded with peptide/MHC complexes and anti-CD28 antibody.
In order to perform in vitro stimulations by artificial antigen presenting cells loaded with peptide-MHC complex (pMHC) and anti-CD28 antibody, the inventors first isolated CD8+ T cells from fresh HLA-A*02 leukapheresis products via positive selection using CD8 microbeads (Miltenyi Biotec, Bergisch-Gladbach, Germany) of healthy donors obtained from the University clinics Mannheim, Germany, after informed consent.
PBMCs and isolated CD8+ lymphocytes were incubated in T-cell medium (TCM) until use consisting of RPMI-Glutamax (Invitrogen, Karlsruhe, Germany) supplemented with 10% heat inactivated human AB serum (PAN-Biotech, Aidenbach, Germany), 100 U/ml Penicillin/100 μg/ml Streptomycin (Cambrex, Cologne, Germany), 1 mM sodium pyruvate (CC Pro, Oberdorla, Germany), 20 μg/ml Gentamycin (Cambrex). 2.5 ng/ml IL-7 (PromoCell, Heidelberg, Germany) and 10 U/ml IL-2 (Novartis Pharma, Nurnberg, Germany) were also added to the TCM at this step.
Generation of pMHC/anti-CD28 coated beads, T-cell stimulations and readout was performed in a highly defined in vitro system using four different pMHC molecules per stimulation condition and 8 different pMHC molecules per readout condition.
The purified co-stimulatory mouse IgG2a anti human CD28 Ab 9.3 (Jung et al., 1987) was chemically biotinylated using Sulfo-N-hydroxysuccinimidobiotin as recommended by the manufacturer (Perbio, Bonn, Germany). Beads used were 5.6 μm diameter streptavidin coated polystyrene particles (Bangs Laboratories, Illinois, USA).
800.000 beads/200 μl were coated in 96-well plates in the presence of 4×12.5 ng different biotin-pMHC, washed and 600 ng biotin anti-CD28 were added subsequently in a volume of 200 μl. Stimulations were initiated in 96-well plates by co-incubating 1×10^6 CD8+ T cells with 2×10^5 washed coated beads in 200 μl TCM supplemented with 5 ng/ml IL-12 (PromoCell) for 3 days at 37° C. Half of the medium was then exchanged by fresh TCM supplemented with 80 U/ml IL-2 and incubating was continued for 4 days at 37° C. This stimulation cycle was performed for a total of three times. For the pMHC multimer readout using 8 different pMHC molecules per condition, a two-dimensional combinatorial coding approach was used as previously described (Andersen et al., 2012) with minor modifications encompassing coupling to 5 different fluorochromes. Finally, multimeric analyses were performed by staining the cells with Live/dead near IR dye (Invitrogen, Karlsruhe, Germany), CD8-FITC antibody clone SK1 (BD, Heidelberg, Germany) and fluorescent pMHC multimers. For analysis, a BD LSRII SORP cytometer equipped with appropriate lasers and filters was used. Peptide specific cells were calculated as percentage of total CD8+ cells. Evaluation of multimeric analysis was done using the FlowJo software (Tree Star, Oregon, USA). In vitro priming of specific multimer+CD8+ lymphocytes was detected by comparing to negative control stimulations.

Row | Substance | in vitro immunogenicity: donors | in vitro immunogenicity: wells
1 | DROSHA-001 (AVVEFLTSV) | ++++ (>= 70% = ++++) | + (<20% = +)
2 | TLLDFINAV (listed as Homo sapiens) [SEQ ID No. 108] | +++ (50%-69% = +++) | + (<20% = +)
3 | TGFBI-001 (ALFVRLLALA; listed as Homo sapiens) | ++++ (>= 70% = ++++) | ++ (20%-49% = ++)
4 | IVDRTTTVV (listed as Homo sapiens) [SEQ ID No. 12] | ++++ (>= 70% = ++++) | ++++ (>= 70% = ++++)
5 | COL6A3-002 (FLLDGSANV; listed as Homo sapiens) | ++++ (>= 70% = ++++) | ++ (20%-49% = ++)
6 | TNC-001 (AMTQLLAGV; listed as Homo sapiens) | ++ (20%-49% = ++) | + (<20% = +)
7 | DONSON-001 (VLYPHEPTAV; listed as Homo sapiens) | ++++ (>= 70% = ++++) | + (<20% = +)
8 | DKC-001 (ALFQRPPLI; listed as Homo sapiens) | ++++ (>= 70% = ++++) | ++ (20%-49% = ++)
9 | ADAM8-001 (KLLTEVHAA; listed as Homo sapiens) | ++++ (>= 70% = ++++) | + (<20% = +)
10 | IVAESLQQV (listed as Homo sapiens) [SEQ ID No. 105] | + (<20% = +) | + (<20% = +)
11 | MXRA5-002 (GLTDNIHLV; listed as Homo sapiens) | ++++ (>= 70% = ++++) | + (<20% = +)
12 | UBE2S-001 (ALNEEAGRLLL; listed as Homo sapiens) | ++++ (>= 70% = ++++) | + (<20% = +)
13 | YVYQNNIYL (listed as Homo sapiens) [SEQ ID No. 115] | ++++ (>= 70% = ++++) | + (<20% = +)
14 | ALLNILSEV (listed as Homo sapiens) [SEQ ID No. 8] | ++++ (>= 70% = ++++) | ++ (20%-49% = ++)
15 | TLYPHTSQV (listed as Homo sapiens) [SEQ ID No. 140] | ++++ (>= 70% = ++++) | ++ (20%-49% = ++)
16 | CDK4-001 (TLWYRAPEV; listed as Homo sapiens) | ++++ (>= 70% = ++++) | ++++ (>= 70% = ++++)
17 | FZD-001 (VLAPLFVYL; listed as Homo sapiens) | ++++ (>= 70% = ++++) | +++ (50%-69% = +++)
18 | VLLPVEVATHYL (listed as Homo sapiens) [SEQ ID No. 142] | ++ (20%-49% = ++) | + (<20% = +)
19 | ALVQDLAKA (listed as Homo sapiens) [SEQ ID No. 131] | ++++ (>= 70% = ++++) | ++ (20%-49% = ++)
20 | RAD54B-001 (SLYKGLLSV; listed as Homo sapiens) | ++++ (>= 70% = ++++) | ++ (20%-49% = ++)
21 | KIIGIMEEV (listed as Homo sapiens) [SEQ ID No. 95] | ++++ (>= 70% = ++++) | ++++ (>= 70% = ++++)
22 | AIVDKVPSV (listed as Homo sapiens) [SEQ ID No. 143] | +++ (50%-69% = +++) | + (<20% = +)

Row | Substance | in vitro immunogenicity: donors | in vitro immunogenicity: wells
23 | KRT-006 (TLLQEQGTKTV; listed as Homo sapiens) | ++ (20%-49% = ++) | + (<20% = +)
24 | ABCA13-002 (ALDENLHQL) | +++ (50%-69% = +++) | + (<20% = +)
25 | RLDDLKMTV (listed as Homo sapiens) [SEQ ID No. 125] | ++++ (>= 70% = ++++) | + (<20% = +)
26 | LIFDLGGGTFDV (listed as Homo sapiens) [SEQ ID No. 16] | +++ (50%-69% = +++) | + (<20% = +)
27 | LIQDRVAEV (listed as Homo sapiens) [SEQ ID No. 14] | ++++ (>= 70% = ++++) | + (<20% = +)
28 | YLNVQVKEL (listed as Homo sapiens) [SEQ ID No. 11] | ++++ (>= 70% = ++++) | + (<20% = +)
29 | ATP-001 (SLHFLILYV; listed as Homo sapiens) | ++++ (>= 70% = ++++) | ++++ (>= 70% = ++++)
30 | ALTSTLISV (listed as Homo sapiens) [SEQ ID No. 5] | ++++ (>= 70% = ++++) | + (<20% = +)
31 | KIQEILTQV (listed as Homo sapiens) [SEQ ID No. 120] | ++++ (>= 70% = ++++) | + (<20% = +)
32 | MXRA5-001 (TLSSIKVEV; listed as Homo sapiens) | ++++ (>= 70% = ++++) | + (<20% = +)
33 | MAGEF1-001 (ILFPDIIARA; listed as Homo sapiens) | ++++ (>= 70% = ++++) | +++ (50%-69% = +++)
34 | BNC1-001 (VLFPNLKTV) | ++++ (>= 70% = ++++) | + (<20% = +)
35 | SLQGSIMTV (listed as Homo sapiens) [SEQ ID No. 6] | ++++ (>= 70% = ++++) | ++ (20%-49% = ++)
36 | RLASYLDKV (listed as Homo sapiens) [SEQ ID No. 133] | ++++ (>= 70% = ++++) | ++ (20%-49% = ++)
37 | SERPINB3-001 (KLFGEKTYL) | +++ (50%-69% = +++) | + (<20% = +)
38 | SNRNP20-001 (GLIEIISNA; listed as Homo sapiens) | ++++ (>= 70% = ++++) | ++ (20%-49% = ++)
39 | VLTSDSPAL (listed as Homo sapiens) [SEQ ID No. 19] | ++++ (>= 70% = ++++) | + (<20% = +)
40 | SILEHQIQV (listed as Homo sapiens) [SEQ ID No. 106] | + (<20% = +) | + (<20% = +)
41 | TMEM43-001 (KLLSDPNYGV; listed as Homo sapiens) | ++++ (>= 70% = ++++) | + (<20% = +)
42 | ILQDRLNQV (listed as Homo sapiens) [SEQ ID No. 152] | +++ (50%-69% = +++) | + (<20% = +)
43 | KLDETNNTL (listed as Homo sapiens) [SEQ ID No. 158] | ++ (20%-49% = ++) | + (<20% = +)
44 | IVDDITYNV (listed as Homo sapiens) [SEQ ID No. 119] | ++++ (>= 70% = ++++) | ++ (20%-49% = ++)
